Assay [1] deals with human squamous lung cancer Ma44. The experiment in a line: In vitro cell growth inhibition test, MTT assay. It is filed as cell-based. Conditions: MTT assay 4 days after compound addition. From the text: (§1) Test Example 2 In Vitro Cell Growth Inhibition Test Cells and MTT Assay
(§2) Human squamous lung cancer […], human squamous lung cancer Ma44, human lung adenocarcinoma A549, human colon cancer HT29 and human pancreas cancer PANC-1 were used.

A further assay relates to human colon cancer HT29. In words: In vitro cell growth inhibition test, MTT assay. The assay is classed as cell-based. As to conditions: MTT assay 4 days after compound addition.
Source text: as §1, §2

Assay [2] concerns human pancreas cancer PANC-1. In words: In vitro cell growth inhibition test, MTT assay. The assay is classed as cell-based. Conditions: MTT assay 4 days after compound addition.
Source text: as §1, §2
(Formazan colour is commonly taken as a measure of viable cells.)

For assay [3], the system named is human squamous lung cancer RERF-RC-AI. The experiment in a line: In vitro cell growth inhibition test, MTT assay. It is filed as cell-based. Conditions: MTT assay 4 days after compound addition.
Source text: as §1, §2

The subject of assay [4] is human lung adenocarcinoma A549. In words: In vitro cell growth inhibition test, MTT assay. It is filed as cell-based. As to conditions: MTT assay 4 days after compound addition.
Source text: as §1, §2

Assay [5] deals with DT-R cells (pRRE3-luc-transfected v-ki-ras-transformed NIH3T3 cells); signal derived from Ras oncogene products. The experiment in a line: Inhibitory effect against cellular signaling derived from Ras oncogene products: luciferase reporter, dissociation of DT-R from DT-C activity (MAC). As to conditions: minimal tested concentration at which luciferase activities of DT-C cells and DT-R cells dissociated. It is filed as cell-based, mouse. The text has this: Test Example 1 Inhibitory Effect Against Cellular Signaling Derived From Ras Oncogene Products
1) Establishment of Cell Lines Used in Assay
Based on the reporter plasmid (pGV-P (Toyo Ink, Japan)), in which luciferase gene was ligated to SV40-derived minimal promoter, we constructed a plasmid designated pRRE3-luc by inserting 3 copies of chemically synthesized oligonucleotides (Sequence: CAGGATATGACTCT, derived from mouse NVL-3 (M. A. Reddy et al.(1992)Mol. Endocrinol., 6, 1051)) into upstream of the promoter. v-ki-ras-transformed NIH3T3 cells (DT cells, provided by Dr. Makoto Noda (Kyoto Univ., School of medicine)) were transfected with this plasmid by liposome-mediated transfection and transfected cell lines stably incorporated and maintained each plasmid were obtained. We named pGV-P and pRRE3-transfected cell line as DT-C and DT-R, respectively and used in the assay described below.
2) Preparation of Samples
i) All the cell lines were cultured in Dulbecco's Modified Essential Medium (DMEM: 10% Fetal Calf Serum(FCS: Hyclone, USA)) including […] kanamycin (Meiji Seika, Japan) in humidified incubator under condition of 5% CO2 at 37° C.
ii) DT-C and DT-R cells were seeded at 2500 cells/well into flat-bottom 96 well multiplate (Sumitomo bakelite) and incubated for 24 hours.
iii) Test compounds were prepared as 1 mg/ml DMSO solution.
iv) The solution of test compounds were added to the culture. Tested compounds are used at the concentration from […] to 0.51 ng/ml with by 3-fold dilution.
v) After 24 hours, the culture supernatant was completely aspirated and […] of cell-lysing solution (PGC-50 (Toyo Ink, Japan)) was added before cells were dried up. In order to the cells were lysed completely, multiwell plates were left at room temperature for 10 to 30 min. The plates were wrapped up and stored at −20° C. till the day of measurement.
3) Measurement of Samples
i) Melt the samples by putting 96 well multiplate at 37° C. and add 90 μl/well 25 mM Tris (pH 7.5).
ii) Transfer 50 μl of the sample (110 μl) to the 96 well microplate for measurement (Microlite 1 (Dynatech)).
iii) Measure the samples by the luminometer, LUMINOUS CT9000D (Dia-Yatron, Japan). We used Pickagene luminescence kit PGL2000 or LT2.0 (Toyo Ink, Japan) as substrates for luminescence measurement (50 μl/well).
4) Judgment of the Results
i) The luciferase activity of DT-C cells and DT-R cells were plotted in the graph where the relative activity and the compound concentration were expressed as Y-axis and X-axis, respectively. We judged by the degree of dissociation between the activities of DT-C cells and DT-R cells as an index.
ii) Concretely, efficacy of the compound was expressed by two values described below.
a) Among the points of concentration tested, the minimal concentration (Minimal Active Concentration: MAC), at which the activities of DT-C cells and DT-R cells dissociated, was shown as an index of efficacy of the compound.

Values after ≈ are worked out from the molar mass of the structure shown.

For the molecule `CCNC(=Nc1nc(C)ncc1CSc1nnc(-c2ccc(N)cc2OC)o1)NCC.Cl` [Compound A-189], the “IC50, Ma44” value in assay [1] is 0.085 µg/mL. Also, the “IC50, HT29” value with human colon cancer HT29 is 0.032 µg/mL. Further, in assay [2], the “IC50, PANC-1” value worked out at 0.021 µg/mL. Moreover, the “IC50, RERF-LC-AI” value in assay [3] was 0.016 µg/mL. Further, the “IC50, A549” value in assay [4] was determined as 0.051 µg/mL. Also, the “MAC (Minimal Active Concentration)” value in assay [5] was 0.0412 µg/mL.

`CCNC(=Nc1nc(C)ncc1CSc1nnc(-c2ccc(N)c(C)c2)o1)NCC` [Compound A-71]: the “IC50, Ma44” value in assay [1] was found to be 0.31 µg/mL (≈ 0.727 µM). Besides, the “IC50, HT29” value in the assay with human colon cancer HT29 is 0.093 µg/mL (≈ 0.218 µM). In assay [2], the “IC50, PANC-1” value amounted to 0.18 µg/mL (≈ 0.422 µM). Besides, in assay [3], the “IC50, RERF-LC-AI” value worked out at 0.077 µg/mL (≈ 0.181 µM). Also, the “IC50, A549” value in assay [4] is 0.72 µg/mL (≈ 1.69 µM). For the same molecule, the “MAC (Minimal Active Concentration)” value in assay [5] worked out at 1.11 µg/mL.

`CCCNC(=Nc1nc(C)ncc1CSc1nnc(-c2ccc(N)cc2)o1)NC` [Compound A-148]: the “IC50, Ma44” value in assay [1] is 0.086 µg/mL (≈ 0.208 µM). Further, the “IC50, HT29” value in the assay on human colon cancer HT29 came to 0.016 µg/mL (≈ 0.0388 µM). Besides, the “IC50, PANC-1” value in assay [2] turned out to be 0.015 µg/mL (≈ 0.0364 µM). In addition, in assay [3], the “IC50, RERF-LC-AI” value was determined as 0.011 µg/mL (≈ 0.0267 µM). Moreover, the “IC50, A549” value in assay [4] stood at 0.49 µg/mL (≈ 1.19 µM). In addition, in assay [5], the “MAC (Minimal Active Concentration)” value worked out at 0.123 µg/mL.

As to `CCCNC(=Nc1nc(CC)ncc1CSc1nnc(-c2ccc(N)cc2)o1)NC` [Compound A-151], the “IC50, Ma44” value in assay [1] turned out to be 0.16 µg/mL (≈ 0.375 µM). Further, the “IC50, HT29” value in the assay on human colon cancer HT29 was 0.02 µg/mL (≈ 0.0469 µM). For the same molecule, the “IC50, PANC-1” value in assay [2] was 0.024 µg/mL (≈ 0.0563 µM). For the same molecule, the “IC50, RERF-LC-AI” value in assay [3] was found to be 0.013 µg/mL (≈ 0.0305 µM). The “IC50, A549” value in assay [4] was 0.07 µg/mL (≈ 0.164 µM). Besides, the “MAC (Minimal Active Concentration)” value in assay [5] came out at 0.37 µg/mL.

As for `CCNC(N)=Nc1nc(C)ncc1CSc1nnc(-c2ccc(N)cc2)o1` [Compound A-184], in assay [1], the “IC50, Ma44” value stood at 0.016 µg/mL (≈ 0.0416 µM). Besides, the “IC50, HT29” value in the assay on human colon cancer HT29 turned out to be 0.0077 µg/mL (≈ 0.02 µM). The “IC50, PANC-1” value in assay [2] stood at 0.0032 µg/mL (≈ 0.00832 µM). For the same molecule, the “IC50, RERF-LC-AI” value in assay [3] turned out to be 0.0027 µg/mL (≈ 0.00702 µM). For the same molecule, the “IC50, A549” value in assay [4] was determined as 0.01 µg/mL (≈ 0.026 µM). The “MAC (Minimal Active Concentration)” value in assay [5] is 0.0412 µg/mL.

On to `CCNC(=Nc1nc(C)ncc1CSc1nnc(-c2ccc(N)cc2N)o1)NCC` [Compound A-76], for which the “IC50, Ma44” value in assay [1] worked out at 0.1 µg/mL (≈ 0.234 µM). For the same molecule, the “IC50, HT29” value with human colon cancer HT29 amounted to 0.008 µg/mL (≈ 0.0187 µM). For the same molecule, the “IC50, PANC-1” value in assay [2] was found to be 0.016 µg/mL (≈ 0.0374 µM). In assay [3], the “IC50, RERF-LC-AI” value turned out to be 0.008 µg/mL (≈ 0.0187 µM). For the same molecule, in assay [4], the “IC50, A549” value stood at 0.02 µg/mL (≈ 0.0468 µM). For the same molecule, the “MAC (Minimal Active Concentration)” value in assay [5] came out at 0.0137 µg/mL.

Regarding `CCNC(=Nc1ncncc1CSc1nnc(-c2ccc(SC)cc2)o1)NCC` [Compound A-120], in assay [1], the “IC50, Ma44” value stood at 0.1 µg/mL (≈ 0.233 µM). In addition, in the assay on human colon cancer HT29, the “IC50, HT29” value was 0.023 µg/mL (≈ 0.0535 µM). For the same molecule, the “IC50, PANC-1” value in assay [2] is 0.055 µg/mL (≈ 0.128 µM). In addition, the “IC50, RERF-LC-AI” value in assay [3] came out at 0.024 µg/mL (≈ 0.0559 µM). In addition, in assay [4], the “IC50, A549” value was 1.3 µg/mL (≈ 3.03 µM). Further, in assay [5], the “MAC (Minimal Active Concentration)” value amounted to 0.123 µg/mL.

As for `CCCNC(=Nc1nc(CC)ncc1CSc1nnc(-c2ccc([N+](=O)[O-])cc2)o1)NC` [Compound A-150], in assay [1], the “IC50, Ma44” value came out at 0.14 µg/mL (≈ 0.307 µM). Moreover, the “IC50, HT29” value in the assay with human colon cancer HT29 worked out at 0.031 µg/mL (≈ 0.0679 µM). The “IC50, PANC-1” value in assay [2] came to 0.037 µg/mL (≈ 0.081 µM). In addition, the “IC50, RERF-LC-AI” value in assay [3] was found to be 0.016 µg/mL (≈ 0.035 µM). For the same molecule, the “IC50, A549” value in assay [4] came out at 0.005 µg/mL (≈ 0.011 µM). In addition, the “MAC (Minimal Active Concentration)” value in assay [5] turned out to be 0.123 µg/mL.

With `CCNC(=Nc1nc(C)ncc1CSc1nnc(-c2ccccc2NC(C)=O)o1)NC` [Compound A-2], the “IC50, Ma44” value in assay [1] was determined as 0.022 µg/mL (≈ 0.0499 µM). In addition, in the assay with human colon cancer HT29, the “IC50, HT29” value worked out at 0.015 µg/mL (≈ 0.034 µM). For the same molecule, the “IC50, PANC-1” value in assay [2] stood at 0.015 µg/mL (≈ 0.034 µM). The “IC50, RERF-LC-AI” value in assay [3] was 0.009 µg/mL (≈ 0.0204 µM). For the same molecule, the “IC50, A549” value in assay [4] is 0.017 µg/mL (≈ 0.0386 µM). Also, in assay [5], the “MAC (Minimal Active Concentration)” value was found to be 0.0412 µg/mL.

The record behind these values is patent US6420367B1, “Pyrimidine derivatives exhibiting antitumor activity” (Shionogo & Co., Ltd., priority 1998, dated 2002).
